Common to all, as to type: biochemical, HIV-1
The test system of assay [1] is multi-NRTI-resistant RT (ERT-mt6), purified p51/p66 heterodimer. Kind of assay: RNA-dependent DNA polymerase activity, dTTP incorporation into poly (rA)·p(dT)12-18, steady-state kinetics. To be noted: for fold increase in IC50 of AZTTP compared to AZTTP without the compound: in the presence of 5 mM of the indicated compound; for fold increase in Ki^NRTI value compared to without ATP: at 3 mM of ATP. As to the method:
(§1) RNA-dependent DNA polymerase activity was measured using [α-^32P]dTTP and poly(rA)/poly(dT)12-18 as described previously. […] These experiments were performed in duplicate and repeated two to six times.
(§2) The averages of the experimental data were fit by a nonlinear regression method using the program Igor Pro (WaveMetrics, USA). The kinetics parameters were determined by the Michaelis-Menten equation: [drawing 1] (1) where [S] is the substrate concentration; Km^app is the apparent Michaelis-Menten constant; and Vmax^app is the apparent maximal rate attained when the enzyme active sites are saturated by substrate.
(§3) Using this model, the enzyme kinetic parameters were calculated using Equations 2–5.
(§4) Vmax^app and Km^app are defined as [drawing 2] (2) and [drawing 3] (3) respectively, where Km is the Michaelis-Menten constant; [E] is the enzyme concentration; [I] is the inhibitor concentration; Ki and Ki′ are the inhibition constants for the enzyme and the complex of the enzyme with substrate; and kcat^app is the apparent turnover number: [drawing 4] (4) where kcat is the turnover number.
(§5) The kcat^app and Km^app that can be derived from the model (Figure 2C) are [drawing 5] (5) and [drawing 6] (6) where Ki^ATP is the dissociation constant of ATP; Ki^AZTTP is the dissociation constant of AZTTP; [I^ATP] is the ATP concentration; and [I^AZTTP] is the AZTTP concentration.

In assay [2] the test system is NRTI-sensitive RT (93JP-NH1), purified p51/p66 heterodimer. The assay is described as above. To be noted: for fold increase in Ki^NRTI value compared to without ATP: at 3 mM of ATP. As for the experimental part:
as §1, §2, §3, §4, §5

Assay [3] relates to D113A/N mutants of ERT-mt6 RT. Description: RNA-dependent DNA polymerase activity of site-directed RT mutants from ERT-mt6. To be noted: D113A/N versus ERT-mt6 RT; 5 mM ATP (Figure S4C). As for the experimental part: The purified RTs were dissolved in the RT stock buffer (50 mM Tris-HCl pH 7.5, 75 mM KCl, 5 mM MgCl2, 2 mM DTT, 0.05% NP40, and 50% glycerol)[32], [33] and kept at −30°C until use. RNA-dependent DNA polymerase activity was measured using [α-^32P]dTTP and poly(rA)/poly(dT)12-18 as described previously. For the RT reaction in the presence of ATP, RT activities were measured in 100 µl of RT reaction cocktail consisting of 50 mM Tris-HCl pH 7.5, 75 mM KCl, 5 mM MgCl2, 2 mM DTT, 0.05% NP40, and 50% glycerol containing RT (1–10 nM), dTTP (0.2–18 µM), and ATP (0–4 mM). For the RT reaction in the presence of ATP and NRTI, RT activities were measured in 100 µl of the RT reaction cocktail containing RT (1–10 nM), dTTP (0.2–18 µM), ATP (0–5 mM), and AZTTP or d4TTP (0–1 µM). These experiments were performed in duplicate and repeated two to six times. […]
Supplementary file pone.0008867.s004.tif: Figure S4 Data on RT mutants from the ERT-mt6 RT. […] RNA-dependent DNA polymerase activity of the purified RTs (20 nM) was measured using a [α-^32P]dTTP and poly (rA)⋅p(dT)12-18 system. […] RNA-dependent DNA polymerase activity of the purified mutant RTs was measured using various concentrations of [α-^32P]dTTP and poly (rA)⋅p(dT)12-18 in the presence of ATP. […]

[4] abbreviates: 0-4 mM ATP, Lineweaver-Burk double-reciprocal plots.
[5] abbreviates: ATP binding to RT-template-primer complex (RT complex 1).
[6] abbreviates: ATP binding to RT-template-primer-dTTP complex (RT complex 2).
Where [7] appears, read: dTTP incorporation, absence of ATP.

Turning to `Nc1ncnc2c1ncn2[C@@H]1O[C@H](COP(=O)(O)OP(=O)(O)NP(=O)(O)O)[C@@H](O)[C@H]1O` [AMP-PNP, Adenosine 5′-(β, γ-imido) triphosphate], the “fold increase in IC50 of AZTTP compared to AZTTP without the compound” value (from here on “fold increase … to AZTTP without the compound”) in assay [1] is listed as “approximately 150 fold”.

Usually Ki stands for a dissociation constant, usually derived from enzyme kinetics or from competition with a known ligand. As for `Nc1ncnc2c1ncn2[C@@H]1O[C@H](COP(=O)(O)OP(=O)(O)OP(=O)(O)O)[C@@H](O)[C@H]1O` [ATP], the “mode of inhibition of dTTP incorporation” value in assay [2] (setting [4]) and in assay [1] (setting [4]) was “mixed noncompetitive inhibition” throughout. Besides, the Ki in assay [2] (setting [5]) stood at 2.9 ± 1.3 mM; in assay [1] (setting [5]), 2.8 ± 1.3 mM. Moreover, the “Ki′^ATP” value came out at 1.2 ± 0.5 mM in assay [2] (setting [6]) and 1.1 ± 0.4 mM in assay [1] (setting [6]). Also, the “fold increase … to AZTTP without the compound” value in assay [1] is listed as “approximately 350 fold”.

With `Cc1cn([C@H]2C[C@H](N=[N+]=[N-])[C@@H](COP(=O)(O)OP(=O)(O)OP(=O)(O)O)O2)c(=O)[nH]c1=O` [AZTTP, 3′-Azido 3′-deoxythymidine 5′-triphosphate], the “fold increase in Ki^NRTI value compared to without ATP” value in assay [2] is given as “about 6.8 fold”; in assay [1], “about 30 fold”. Also, in assay [3], the “fold reduction in the IC50 of AZTTP” value is given as 4- to 5 fold.

For the molecule `Cc1cn([C@H]2C=C[C@@H](COP(=O)(O)OP(=O)(O)OP(=O)(O)O)O2)c(=O)[nH]c1=O` [d4TTP, 3′-deoxy-2′, and 3′-didehydrothymidine 5′-triphosphate], the “fold increase in Ki^NRTI value compared to without ATP” value in assay [2] was ~0.6 fold; in assay [1], ~8.5 fold.

The term kcat denotes the number of substrate molecules converted per active site and unit of time at saturation. By Km is commonly meant the concentration of substrate that gives half-maximal velocity. For `Cc1cn([C@H]2C[C@H](O)[C@@H](COP(=O)(O)OP(=O)(O)OP(=O)(O)O)O2)c(=O)[nH]c1=O` [dTTP], the kcat amounted to 1.04 ± 0.01 s⁻¹ in assay [2] (setting [7]) and 0.49 ± 0.01 s⁻¹ in assay [1] (setting [7]). The Km in assay [2] (substrate dTTP, absence of ATP) came to 4 ± 0.1 µM; in assay [1] (substrate dTTP, absence of ATP), 13.8 ± 0.5 µM.

Take NaPO4: the “fold increase … to AZTTP without the compound” value in assay [2] (in the presence of 5 mM of the indicated compound) and in assay [1] was “little effect” throughout.

(Values after publication PMC2810339, “Allosteric Regulation of HIV-1 Reverse Transcriptase by ATP for Nucleotide Selection” (PLoS ONE, 2010).)
